Source: patent publication US8802713B2, “3-alkoxy-1-phenylpyrazole derivatives and pesticides” (Kumiai Chemical Industry Co., Ltd., priority 2007, dated 2014)
Read-outs that look alike come from different tables or passages of the source.

Experiments:
[1] = system: brown rice planthopper; experiment: Insecticidal test on brown rice planthopper; type: in vivo; settings: 144 h
Experimental: A wettable powder prepared in accordance with Formulation Example 2 was diluted with water to a concentration of an active ingredient of 500 ppm. Rice sprouts were dipped in this solution and put in a plastic cup having a capacity of 60 mL. Ten third-instar larvae of brown rice planthopper were released in the cup, the cup was lidded and placed in a thermostatic chamber at 25° C. for 6 days, and the number of dead larvae were counted for calculation of the mortality by Equation 2. The test was carried out by one series system.

[2] = system: diamondback moth; experiment: Insecticidal test on diamondback moth; type: in vivo; settings: Plutella xylostella, 144 h
Experimental: A wettable powder prepared in accordance with Formulation Example 2 was diluted with water to a concentration of an active ingredient of 500 ppm. Cabbage leaves were dipped in this solution and dried in air and then put in a plastic cup having a capacity of 60 mL. 10 second-instar larvae of diamondback moth were released in the cup and the cup was lidded. Then, the cup was placed in a thermostatic chamber at 25° C. for 6 days, and dead moths were counted for calculation of the mortality by Equation 2. The test was carried out by one series system.

[3] = system: cotton aphid; experiment: Insecticidal test on cotton aphid (seedling dip); type: in vivo; settings: Aphis gossypii, 72 h
Experimental: A wettable powder prepared in accordance with Formulation Example 2 was diluted with water to a concentration of an active ingredient of 500 ppm. Cucumber seedlings which had been inoculated with larvae of cotton aphid were dipped in this solution and dried in air. The treated cucumber seedlings were placed in a thermostatic chamber at 25° C. for 3 days, and the live insects were counted for calculation of the mortality by Equation 2. The test was carried out by one series system.

[4] = system: cotton bollworm; experiment: Insecticidal test on cotton bollworm; type: in vivo; settings: Helicoverpa armigera, 144 h
Experimental: A wettable powder prepared in accordance with Formulation Example 2 was diluted with water to a concentration of an active ingredient of 500 ppm. Cabbage leaves were dipped in this solution and dried in air and then put in a plastic cup having a capacity of 60 mL. Five hatched larvae of cotton bollworm were released in the cup, and the cup was lidded and placed in a thermostatic chamber at 25° C. for 6 days, and the number of dead larvae were assessed for calculation of the mortality by Equation 2. The test was carried out by two series system.

[5] = system: two-spotted spider mites; experiment: Miticidal test on two-spotted spider mites (seedling dip); type: in vivo, Tetranvchus urticae; settings: Glycine max, 312 h, read-out: protective value
Experimental: A wettable powder prepared in accordance with Formulation Example 2 was diluted with water to a concentration of an active ingredient of 500 ppm. Soybean seedlings which had been inoculated with imago two-spotted spider mites were dipped in the solution and dried in air. The treated soybean seedlings were placed in a thermostatic chamber at 25° C. for 13 days, and the number of live mites were assessed for calculation of the protective value by Equation 1. The test was carried out by one series system.

[6] = 500 ppm active ingredient, soybean seedlings with imago mites dipped, 25° C., 13 days
[7] = 500 ppm active ingredient, cabbage leaves dipped, second-instar larvae, 25° C., 6 days, read-out: mortality
[8] = 500 ppm active ingredient, cabbage leaves dipped, hatched larvae, 25° C., 6 days, read-out: mortality
[9] = 500 ppm active ingredient, cucumber seedlings with larvae of cotton aphid dipped, 25° C., 3 days, read-out: mortality

Structure (SMILES)	mortality at 500 ppm [1] [%]	mortality at 500 ppm ([2]; in Brassica oleracea) [%]	mortality at 500 ppm ([3]; in Cucumis sativus) [%]	mortality at 500 ppm ([4]; in Brassica oleracea) [%]	pest or weed control at 500 ppm [5, 6] [%]	mortality at 500 ppm [2, 7] [%]	mortality at 500 ppm [4, 8] [%]	pest or weed control at 500 ppm [5] [%]	melting point [°C]	mortality at 500 ppm [3, 9] [%]
Cc1cc(F)c(-n2nc(OC(F)(F)C(F)C(F)(F)F)cc2N)cc1SCC(F)(F)F (stereo not drawn) [1-9, 5-amino-1-{2-fluoro-4-methyl-5-(2,2,2-trifluoroethylthio)phenyl}-3-(1,1,2,3,3,3-hexafluoropropoxy)pyrazole]	≥ 90	≥ 90	≥ 90	≥ 90	≥ 90	–	–	–	–	–
CC(=O)Nc1cc(OC(F)(F)C(F)OC(F)(F)F)nn1-c1cc(SCC(F)(F)F)c(C)cc1F (stereo not drawn) [1-15, 5-acetylamino-1-{2-fluoro-4-methyl-5-(2,2,2-trifluoroethylthio)phenyl}-3-{1,1,2-trifluoro-2-(trifluoromethoxy)ethoxy}pyrazole]	≥ 90	≥ 90	≥ 90	≥ 90	≥ 90	–	–	–	–	–
CC(=O)Nc1cc(OC(F)(F)C(F)OC(F)(F)F)nn1-c1cc([S+]([O-])CC(F)(F)F)c(C)cc1F (stereo not drawn) [1-16, 5-acetylamino-1-{2-fluoro-4-methyl-5-(2,2,2-trifluoroethylsulfinyl)phenyl}-3-{1,1,2-trifluoro-2-(trifluoromethoxy)ethoxy}pyrazole]	–	≥ 90	≥ 90	≥ 90	≥ 90	–	–	–	–	–
CC(=O)Nc1cc(OCC(F)(F)C(F)(F)F)nn1-c1cc(SCC(F)(F)F)c(C)cc1F [1-17, 5-acetylamino-1-{2-fluoro-4-methyl-5-(2,2,2-trifluoroethylthio)phenyl}-3-(2,2,3,3,3-pentafluoropropoxy)pyrazole]	≥ 90	≥ 90	≥ 90	≥ 90	≥ 90	–	–	–	–	–
CC(=O)Nc1cc(OCC(F)(F)C(F)(F)C(F)(F)C(F)(F)F)nn1-c1cc([S+]([O-])CC(F)(F)F)c(C)cc1F (stereo not drawn) [1-78, 5-acetylamino-1-{2-fluoro-4-methyl-5-(2,2,2-trifluoroethylsulfinyl)phenyl}-3-(2,2,3,3,4,4,5,5,5-nonafluoropentyloxy)pyrazole]	≥ 90	–	–	–	–	≥ 90	≥ 90	≥ 90	–	–
Cc1cc(F)c(-n2nc(OCC(F)(F)C(F)(F)F)cc2CC(N)=O)cc1SCC(F)(F)F [1-139, 1-{2-fluoro-4-methyl-5-(2,2,2-trifluoroethylthio)phenyl}-3-(2,2,3,3,3-pentafluoropropoxy)pyrazole-5-carboxyamide]	–	–	–	–	–	–	–	–	102 to 104	–
CCOC(=O)c1cc(OCC(F)(F)C(F)(F)F)nn1-c1cc(SCC(F)(F)F)c(C)cc1F [1-143, ethyl 1-{2-fluoro-4-methyl-5-(2,2,2-trifluoroethylthio)phenyl}-3-(2,2,3,3,3-pentafluoropropoxy)pyrazole-5-carboxylate]	–	–	–	–	–	–	–	–	81 to 84	–
C#CCNc1cc(OCC(F)(F)C(F)(F)F)nn1-c1cc(SCC(F)(F)F)c(C)cc1F [1-161, 1-{2-fluoro-4-methyl-5-(2,2,2-trifluoroethylthio)phenyl}-3-(2,2,3,3,3-pentafluoropropoxy)-5-(2-propynylamino)pyrazole]	≥ 90	≥ 90	≥ 90	≥ 90	≥ 90	–	–	–	–	–
CNc1cc(OC(F)(F)C(F)C(F)(F)F)nn1-c1cc([S+]([O-])CC(F)(F)F)c(C)cc1F (stereo not drawn) [1-187, 1-{2-fluoro-4-methyl-5-(2,2,2-trifluoroethylsulfinyl)phenyl}-3-(1,1,2,3,3,3-hexafluoropropoxy)-5-methylaminopyrazole]	≥ 90	–	–	–	–	≥ 90	≥ 90	–	–	≥ 90
CNc1cc(OC(F)(F)C(F)OC(F)(F)C(F)(F)C(F)(F)F)nn1-c1cc(SCC(F)(F)F)c(C)cc1F (stereo not drawn) [1-347, 1-{2-fluoro-4-methyl-5-(2,2,2-trifluoroethylthio)phenyl}-5-methylamino-3-{1,1,2-trifluoro-2-(heptafluoropropoxy)ethoxy}pyrazole]	≥ 90	–	–	–	–	≥ 90	≥ 90	≥ 90	–	≥ 90
C#CCNc1cc(OC(F)(F)C(F)OC(F)(F)C(F)(F)C(F)(F)F)nn1-c1cc(SCC(F)(F)F)c(C)cc1F (stereo not drawn) [1-357, 1-{2-fluoro-4-methyl-5-(2,2,2-trifluoroethylthio)phenyl}-5-(2-propynylamino)-3-{1,1,2-trifluoro-2-(heptafluoropropoxy)ethoxy}pyrazole]	≥ 90	–	–	–	–	≥ 90	≥ 90	≥ 90	–	≥ 90
CNc1cc(OC(F)(F)C(F)(F)C(F)(F)C(F)(F)C(F)(F)F)nn1-c1cc(SCC(F)(F)F)c(C)cc1F [1-524, 1-{2-fluoro-4-methyl-5-(2,2,2-trifluoroethylthio)phenyl}-5-methylamino-3-(1,1,2,2,3,3,4,4,5,5,5-undecafluoropentyloxy)pyrazole]	≥ 90	–	–	–	–	≥ 90	≥ 90	≥ 90	–	–
CNc1cc(OC(F)(F)C(F)(F)C(F)(F)C(F)(F)C(F)(F)F)nn1-c1cc([S+]([O-])CC(F)(F)F)c(C)cc1F (stereo not drawn) [1-525, 1-{2-fluoro-4-methyl-5-(2,2,2-trifluoroethylsulfinyl)phenyl}-5-methylamino-3-(1,1,2,2,3,3,4,4,5,5,5-undecafluoropentyloxy)pyrazole]	≥ 90	–	–	–	–	≥ 90	≥ 90	≥ 90	–	–
COc1cc(OC(F)(F)C(F)OC(F)(F)F)nn1-c1cc([S+]([O-])CC(F)(F)F)c(C)cc1F (stereo not drawn) [1-795, 1-{2-fluoro-4-methyl-5-(2,2,2-trifluoroethylsulfinyl)phenyl}-5-methoxy-3-{1,1,2-trifluoro-2-(trifluoromethoxy)ethoxy}pyrazole]	≥ 90	≥ 90	≥ 90	≥ 90	≥ 90	–	–	–	–	–
CC(=O)Nc1cc(OC(F)(F)C(F)F)nn1-c1cc([S+]([O-])CC(F)(F)F)c(C)cc1F (stereo not drawn) [1-1368, 5-acetylamino-1-{2-fluoro-4-methyl-5-(2,2,2-trifluoroethylsulfinyl)phenyl}-3-(1,1,2,2-tetrafluoroethoxy)pyrazole]	≥ 90	≥ 90	≥ 90	≥ 90	≥ 90	–	–	–	–	–
Cc1cc(F)c(-n2cc(C#N)c(OC(F)(F)C(F)OC(F)(F)F)n2)cc1SCC(F)(F)F (stereo not drawn) [1-1587, 4-cyano-1-{2-fluoro-4-methyl-5-(2,2,2-trifluoroethylthio)phenyl}-3-{1,1,2-trifluoro-2-(trifluoromethoxy)ethoxy}pyrazole]	–	–	–	–	≥ 90	–	–	–	57 to 58	–
Cc1cc(F)c(-n2nc(OCC(F)(F)C(F)(F)C(F)(F)F)cc2NC=O)cc1SCC(F)(F)F [1-1593, 1-{2-fluoro-4-methyl-5-(2,2,2-trifluoroethylthio)phenyl}-5-formylamino-3-(2,2,3,3,4,4,4-heptafluorobutoxy)pyrazole]	≥ 90	–	–	–	–	≥ 90	≥ 90	≥ 90	–	≥ 90
Cc1cc(F)c(-n2nc(OCC(F)(F)C(F)(F)C(F)(F)F)cc2NC=O)cc1[S+]([O-])CC(F)(F)F (stereo not drawn) [1-1594, 1-{2-fluoro-4-methyl-5-(2,2,2-trifluoroethylsulfinyl)phenyl}-5-formylamino-3-(2,2,3,3,4,4,4-heptafluorobutoxy)pyrazole]	–	–	–	–	–	≥ 90	≥ 90	–	–	≥ 90
